From patent US10357576B2, “18F-labelled folate/antifolate analogues” (MERCK & CIE, priority 2012, dated 2019)

Molecular target: T1, Folate receptor (Homo sapiens, UniProt P15328)
T1 construct: host or cells: KB cells (human cervical carcinoma cell line, HeLa subclone)
Assay: Folate receptor binding affinity (displacement of ^3H-folic acid on KB tumor cells)
Conditions: ^3H-folic acid 0.84 nM, 4° C., 30 min, read-out: FR-binding affinity IC50
Experimental: Cell Culture: KB cells (human cervical carcinoma cell line, HeLa subclone; ACC-136) were purchased from the German Collection of Microorganisms and Cell Cultures (DSMZ, Braunschweig, Germany). The cells were cultured as monolayers at 37° C. in a humidified atmosphere containing 5% CO2. […] FFRPMI medium was supplemented with 10% heat-inactivated fetal calf serum (FCS, as the only source of folate), L-glutamine and antibiotics (penicillin/streptomycin/fungizone). Routine culture treatment was performed twice a week with EDTA (2.5 mmol/l) in PBS.
After incubation, Eppendorf tubes containing the cell suspensions were centrifuged at 4° C. for 5 min and the supernatant was removed. By addition of 0.5 ml of NaOH 1 M the cell pellets were lysed and transferred into scintillation tubes containing 5 ml of scintillation cocktail (Ultima Gold; Perkin Elmer). Radioactivity was measured using a liquid scintillation analyzer (Tri-Carb 1900 TR, Packard) and an inhibitory concentration of 50% was determined from displacement curves using GraphPad Prism (version 5.01) software.

T1 sequence (P15328 25-234): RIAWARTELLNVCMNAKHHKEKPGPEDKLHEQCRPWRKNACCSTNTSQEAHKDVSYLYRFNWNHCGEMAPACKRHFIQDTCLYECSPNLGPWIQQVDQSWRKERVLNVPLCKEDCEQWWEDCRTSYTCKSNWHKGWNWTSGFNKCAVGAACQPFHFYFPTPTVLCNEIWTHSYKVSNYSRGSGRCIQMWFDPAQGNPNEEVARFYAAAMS

Nc1nc2ncc(CNc3ccc(C(=O)N[C@@H](CCC(=O)O)C(=O)O)c(F)n3)nc2c(=O)[nH]1 [3′-aza-2′-fluorofolic acid]
IC50: 0.81 ± 0.18 nM
